PubChem BioAssay (NCI)
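Cultured in 96-well plates, cells were exposed to test compound for 48 hours across five concentrations. GI50: concentration for 50% inhibition of growth. Definition used: TGI = concentration required for complete inhibition of growth.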

Key:
Experiment in all cases: NCI anticancer screen, dose series, 48 h
NCI-H522 lung = test system: NCI-H522 lung
SNB-19 CNS = test system: SNB-19 CNS
SR leukemia = test system: SR leukemia
MOLT-4 leukemia = test system: MOLT-4 leukemia
HT29 colon = test system: HT29 colon
KM12 colon = test system: KM12 colon
SNB-75 CNS = test system: SNB-75 CNS
MDA-MB-435 = test system: MDA-MB-435
BT-549 breast = test system: BT-549 breast
T-47D breast = test system: T-47D breast

CC1(C)C=C(N2CCN(C3=CC(C)(C)NC(C)(C)C3)CC2)CC(C)(C)N1
TGI (NCI-H522 lung): > 100 µM
TGI (SNB-19 CNS): > 100 µM
TGI (SR leukemia): > 100 µM
TGI (MOLT-4 leukemia): > 100 µM
TGI (HT29 colon): > 100 µM
TGI (KM12 colon): > 100 µM
TGI (SNB-75 CNS): > 100 µM

CCCCCCCCCCCCCC(=O)NO
TGI (NCI-H522 lung): 19.5 µM
TGI (SNB-19 CNS): 73.2 µM
TGI (MDA-MB-435): 67 µM
TGI (SR leukemia): > 100 µM
TGI (MOLT-4 leukemia): > 49 µM
TGI (BT-549 breast): 33.1 µM
TGI (HT29 colon): 25.3 µM
TGI (KM12 colon): 47.2 µM
TGI (SNB-75 CNS): 40 µM

c1ccc(N2CCN(CCCN3CCc4c([nH]c5ccccc45)C3c3cccnc3)CC2)cc1 (stereo unspecified)
TGI (NCI-H522 lung): > 100 µM
TGI (SNB-19 CNS): > 100 µM
TGI (SR leukemia): > 71.1 µM
TGI (MOLT-4 leukemia): > 100 µM
TGI (HT29 colon): > 100 µM
TGI (KM12 colon): > 100 µM
TGI (SNB-75 CNS): > 100 µM

COc1ccc2[nH]cc(C3(c4c[nH]c5ccc(OC)cc45)C(=O)Nc4ccc(Cl)cc43)c2c1
GI50 (SNB-19 CNS): 5.14 µM
TGI (SNB-19 CNS): > 100 µM
GI50 (MOLT-4 leukemia): 4.12 µM
TGI (MOLT-4 leukemia): 21.1 µM
GI50 (BT-549 breast): 5.08 µM
TGI (BT-549 breast): 56.8 µM
GI50 (KM12 colon): 2.52 µM
TGI (KM12 colon): 6.33 µM
GI50 (SNB-75 CNS): 1.9 µM
TGI (SNB-75 CNS): 14 µM
GI50 (T-47D breast): 4.93 µM
TGI (T-47D breast): > 100 µM

Cn1c2ccccc2c2c(=O)n(CCCC(=O)NCCc3cnc[nH]3)c3c(-c4ccccc4)nnn3c21
GI50 (SNB-19 CNS): 11.8 µM
TGI (SNB-19 CNS): 24.1 µM
GI50 (MDA-MB-435): 10.2 µM
TGI (MDA-MB-435): 20 µM
GI50 (SR leukemia): 4.03 µM
TGI (SR leukemia): > 50 µM
GI50 (MOLT-4 leukemia): 3.95 µM
TGI (MOLT-4 leukemia): 21.5 µM
GI50 (HT29 colon): 8.55 µM
TGI (HT29 colon): 17.9 µM
GI50 (KM12 colon): 8.16 µM
TGI (KM12 colon): 16.9 µM
GI50 (SNB-75 CNS): 10.4 µM
TGI (SNB-75 CNS): 18.6 µM
GI50 (T-47D breast): 10.4 µM
TGI (T-47D breast): 25.1 µM

CC(=O)OC(C)(C)C[N+](=O)[O-]
TGI (NCI-H522 lung): > 100 µM
TGI (SNB-19 CNS): > 100 µM
TGI (SR leukemia): > 100 µM
TGI (MOLT-4 leukemia): > 100 µM
TGI (HT29 colon): > 100 µM
TGI (KM12 colon): > 100 µM
TGI (SNB-75 CNS): > 100 µM

CC1OC(OC2C(O)C(OCCc3ccc(O)c(O)c3)OC(CO)C2OC(=O)/C=C/c2ccc(O)c(O)c2)C(O)C(O)C1O (stereo unspecified)
GI50 (NCI-H522 lung): > 100 µM
TGI (NCI-H522 lung): > 100 µM
GI50 (SNB-19 CNS): > 100 µM
TGI (SNB-19 CNS): > 100 µM
GI50 (MDA-MB-435): 39.7 µM
TGI (MDA-MB-435): > 100 µM
GI50 (SR leukemia): 0.634 µM
TGI (SR leukemia): > 100 µM
GI50 (KM12 colon): > 100 µM
TGI (KM12 colon): > 100 µM
GI50 (T-47D breast): > 100 µM
TGI (T-47D breast): > 100 µM

CCN(CC)CCNc1ccc(N=Nc2cnc3ccccc3c2)c2ccccc12
GI50 (NCI-H522 lung): 1.91 µM
TGI (NCI-H522 lung): 3.54 µM
GI50 (SNB-19 CNS): 2.06 µM
TGI (SNB-19 CNS): 3.97 µM
GI50 (SR leukemia): 0.59 µM
TGI (SR leukemia): 2.08 µM
GI50 (MOLT-4 leukemia): 1.56 µM
TGI (MOLT-4 leukemia): 3.03 µM
GI50 (HT29 colon): 1.38 µM
TGI (HT29 colon): 2.67 µM
GI50 (KM12 colon): 1.56 µM
TGI (KM12 colon): 2.89 µM
GI50 (SNB-75 CNS): 1.36 µM
TGI (SNB-75 CNS): 2.89 µM
GI50 (T-47D breast): 1.81 µM
TGI (T-47D breast): 4.08 µM

Cc1nccc2c3ccc(OCc4cn(-c5ccc(Br)cc5)nn4)cc3n(CCCc3ccccc3)c12
GI50 (SNB-19 CNS): 3.35 µM
TGI (SNB-19 CNS): > 100 µM
GI50 (MOLT-4 leukemia): 5.55 µM
TGI (MOLT-4 leukemia): > 100 µM
GI50 (BT-549 breast): 2.47 µM
TGI (BT-549 breast): 7.48 µM
GI50 (HT29 colon): 2.9 µM
TGI (HT29 colon): > 100 µM
GI50 (KM12 colon): 2.73 µM
TGI (KM12 colon): > 100 µM
GI50 (SNB-75 CNS): 1.54 µM
TGI (SNB-75 CNS): 3.98 µM
GI50 (T-47D breast): > 100 µM
TGI (T-47D breast): > 100 µM

CN(CCc1ccccn1)/[N+]([O-])=N/O (tested in a mixture with another compound)
TGI (SNB-19 CNS): > 100 µM
TGI (SR leukemia): > 100 µM
TGI (MOLT-4 leukemia): > 100 µM
TGI (HT29 colon): > 100 µM
TGI (KM12 colon): > 100 µM
TGI (SNB-75 CNS): > 100 µM
